One series has as its target T1, IAPP (Homo sapiens, UniProt P10997).
T1 construct: made in house; host or cells: chemical synthesis (Fmoc-SPPS), air-oxidised, RP-HPLC purified
T1 sequence (P10997 34-70 limits assumed): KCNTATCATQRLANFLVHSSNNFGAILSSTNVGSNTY
The experiment in a line: MTT reduction assay of IAPP-mediated cell damage in RIN5fm cells. To be noted: for Effect on formation of cytotoxic IAPP assemblies (MTT reduction): aged (24 h or 7 days) IAPP/peptide 1/2 solutions; for pIC50: read-out: IC50 (±SD) of inhibitory effects of ACMs on IAPP-mediated cell damage. It counts as cell-based. The protocol:
Briefly, cells were cultivated and platted in 96-well plates. Aliquots of solutions used for the ThT binding assays (see “ThT binding assays”) were diluted with cell medium at the indicated incubation time points (24 h or 7 days) and added to the cells at the indicated final concentrations. Following incubation with the cells for ˜20 h (37° C., humidified atmosphere, 5% CO2) cell damage was assessed by measuring cellular MTI reduction. IC50 values were determined.
On the technique in general: Formazan colour is commonly taken as a measure of viable cells.

The target of series [1] is T2, Aβ42 (Homo sapiens, UniProt P05067).
T2 construct: the 40(42)-residue peptide Aβ40(42); made in house; host or cells: chemical synthesis (Fmoc-SPPS), monomer isolated by SEC
Kind of series: cell-based. The settings on record: read-out: IC50 (±SD) of inhibitory effects of ACMs on Aβ42-mediated cell damage. The protocol:
Following incubation with the cells for ˜20 h (37° C., humidified atmosphere, 5% CO2), cell damage was assessed by measuring cellular MTT reduction.
Solutions were aged for 1.5 h (37° C., shaking 500 rpm). Aliquots were diluted with cell medium, incubated with PC12 cells at the indicated final concentrations for ˜20 h and cellular MTT reduction was measured as above.

Series [2] concerns Aβ42-mediated LTP impairment. Kind of series: Hippocampal long-term potentiation (LTP) measurements in murine hippocampal slices ex vivo. Also noted: species or system mouse. The settings on record: Aβ42 oligomers 50 nM, 24 h aged, 30° C.; oligomers/ACM 1/10. The protocol:
LTP measurements were performed. Briefly, sagittal hippocampal slices (350 μm) were obtained from C57BL/6N male mice (6-8 weeks) in ice-cold Ringer solution bubbled with a mixture of 95% O2 and 5% CO2 and according to protocols approved by the ethical committee on animal care and use of the government of Bavaria Germany. Extracellular recordings were performed using artificial cerebrospinal fluid (ACSF)-filled glass microelectrodes (2-3 MW) at RT. […] Field excitatory postsynaptic potentials (fEPSPs) were evoked in the hippocampal CA1 dendritic region via two independent inputs by stimulating the Schaffer collateral commissural pathway (Scep). For LTP induction, high-frequency stimulation (HFS; 100 Hz/100 pulses) conditioning pulses were delivered to the same Seep inputs. Both stimulating electrodes were used to utilize the input specificity of LTP, thus allowing for the measurement of an internal control within the same slice. […] Responses were measured for 60 min after HFS. […] Data analysis by 1-way ANOVA and Bonferroni's multiple comparison test.

The test system of series [3] is cultured murine BV2 microglia. The experiment in a line: Phagocytosis of Aβ42 species with or without ACM. The format is cell-based, mouse. To be noted: 1/1, co-incubation 2 h. The protocol:
Briefly, BV2 cells were maintained in GlutaMAX-supplemented RPMI1640 medium containing 10% FBS and 1% penicillin/streptomycin on poly-L-ornithine-coated flasks. For the phagocytosis assay, BV2 cells were seeded into 24-well plates containing coverslips in serum-free RPMI1640-GlutaMAX and further incubated for 24 h (5% CO2, 37° C.) to reach 10000 cells/well. Primary BMDMs were obtained from bone-marrow monocytes isolated from wildtype C57BL/6 mice, plated in 24-well plates at a density of 10000cells/well, and differentiated with L929 cell-conditioned medium (RPMI1640, 10% FBS, 1% penicillin/streptomycin) for 7 days. Thereafter, cells were incubated with aged peptide solutions at 37° C. for 6 h. […]
Following incubation of the cells with the peptides, supernatants were removed and cells on the coverslips were washed 5 times with ice-cold 1×PBS, fixed with 4% paraformaldehyde, washed with 1×PBS, permeabilized with 0.2% Triton-X 100, and rinsed three times with cold 1×PBS. […] Images were acquired using a Leica DMi8 fluorescence microscope. The percentage of cells that had taken up peptides was calculated by dividing the number of BV2 cells or BMDMs that phagocytosed TAMRA-labeled peptide by the total cell count, multiplied by 100. Significance was analyzed by unpaired student's t-test.

Series [4] deals with T2, Aβ42. The experiment in a line: ThT binding assay of Aβ42 fibrillogenesis (self-assembly, seeding, cross-seeding). It counts as biochemical. To be noted: Aβ42 5 μM, Aβ42/peptide 1/1. The protocol: Aβ42 fibrillogenesis-related studies. […] Peptide incubations were performed in the presence of ThT in 96-well black MTPs (FluoroNunc, Thermo Fisher Scientific). […] Values of seeds or buffer alone were subtracted from the data in self-/cross-seeding assays; all other data shown are raw data except for data in FIG. 27b which were normalized).
Incubations (37° C.) and determination of ThT fluorescence were performed as for all other Aβ42-related studies.

pIC50: −log10 of the molar value. Entries after “also recorded” stand apart in the source; their conditions may differ. Non-standard residues stand in square brackets, D forms with d. Residues, ends and D or L forms follow the SMILES beside them. No end group written: not given here. NMeF = CN[C@@H](Cc1ccccc1)C(=O)O; NMeL = CN[C@@H](CC(C)C)C(=O)O; NMeV = CN[C@H](C(=O)O)C(C)C; Nle = CCCC[C@H](N)C(=O)O

Broadly, the pIC50 is the IC50 on a negative log10 scale, so that one unit is a factor of ten. With `CCCC[C@H](NC(=O)[C@H](CC(C)C)NC(=O)CNC(=O)[C@@H](NC(=O)[C@@H](NC(=O)[C@H](C)NC(=O)CNC(=O)[C@H](CCCCN)NC(=O)[C@H](CC(N)=O)NC(=O)[C@H](Cc1ccccc1)NC(=O)[C@H](Cc1ccccc1)NC(=O)[C@H](Cc1ccccc1)NC(=O)[C@H](CC(=O)O)NC(=O)[C@H](CCC(=O)O)NC(=O)[C@H](C)NC(=O)[C@H](Cc1ccccc1)NC(=O)[C@H](Cc1ccccc1)N(C)C(=O)[C@@H](NC(=O)[C@H](CC(C)C)N(C)C(=O)[C@H](CCCCN)NC(=O)[C@@H](N)CCC(N)=O)C(C)C)[C@@H](C)CC)[C@@H](C)CC)C(=O)N[C@H](C(=O)NCC(=O)NCC(=O)N[C@H](C(=O)N[C@H](C(=O)O)C(C)C)C(C)C)C(C)C` [F3-LF] (H-QK[NMeL]V[NMeF]FAEDFFFNKGAIIGL[Nle]VGGVV-OH), at IAPP (RIN5fm cells), the “Effect on formation of cytotoxic IAPP assemblies (MTT reduction)” value (“Effect on formation … (MTT reduction)” below) is recorded as “fully suppressed; also recorded: suppress formation of toxic IAPP assemblies”. For the same compound, the results for the pIC50 on IAPP and on Aβ42 [1] were 7.38 and 6.58, respectively. Further, in series [2], the “Effect on LTP impairment mediated by preformed Aβ42 oligomers” value is reported as “suppress LTP impairment mediated by preformed Aβ42 oligomers”.
On to `CCCC[C@H](NC(=O)[C@H](CC(C)C)NC(=O)CNC(=O)[C@@H](NC(=O)[C@@H](NC(=O)[C@H](C)NC(=O)CNC(=O)[C@H](CCCCN)NC(=O)[C@H](CC(N)=O)NC(=O)[C@H](Cc1ccccc1)NC(=O)[C@H](Cc1ccccc1)NC(=O)[C@H](Cc1ccccc1)NC(=O)[C@H](CC(=O)O)NC(=O)[C@H](CCC(=O)O)NC(=O)[C@H](C)NC(=O)[C@H](Cc1ccccc1)N(C)C(=O)[C@H](Cc1ccccc1)NC(=O)[C@H](C(C)C)N(C)C(=O)[C@H](CC(C)C)NC(=O)[C@H](CCCCN)NC(=O)[C@@H](N)CCC(N)=O)[C@@H](C)CC)[C@@H](C)CC)C(=O)N[C@H](C(=O)NCC(=O)NCC(=O)N[C@H](C(=O)N[C@H](C(=O)O)C(C)C)C(C)C)C(C)C` [F3-VF] (H-QKL[NMeV]F[NMeF]AEDFFFNKGAIIGL[Nle]VGGVV-OH), for which, on IAPP (RIN5fm cells, ACM 33 μM added to fIAPP […], 1 day, fIAPP 500 nM), the “Effect of addition to preformed fIAPP on fIAPP cytotoxicity (MTT reduction)” value is reported as “does not affect fIAPP cytotoxicity”. Further, the “Effect on formation … (MTT reduction)” value at IAPP (RIN5fm cells) is recorded as “fully suppressed; also recorded: suppress formation of toxic IAPP assemblies”. For the same compound, the pIC50 was 7.11 on IAPP and 5.99 at Aβ42 [1].
In the case of `CCCC[C@H](NC(=O)[C@H](CC(C)C)NC(=O)CNC(=O)[C@@H](NC(=O)[C@@H](NC(=O)[C@H](C)NC(=O)CNC(=O)[C@H](CCCCN)NC(=O)[C@H](CC(N)=O)NC(=O)[C@H](CC(C)C)NC(=O)[C@H](CC(C)C)NC(=O)[C@H](CC(C)C)NC(=O)[C@H](CC(=O)O)NC(=O)[C@H](CCC(=O)O)NC(=O)[C@H](C)NC(=O)[C@H](Cc1ccccc1)NC(=O)[C@H](Cc1ccccc1)N(C)C(=O)[C@@H](NC(=O)[C@H](CC(C)C)N(C)C(=O)[C@H](CCCCN)NC(=O)[C@@H](N)CCC(N)=O)C(C)C)[C@@H](C)CC)[C@@H](C)CC)C(=O)N[C@H](C(=O)NCC(=O)NCC(=O)N[C@H](C(=O)N[C@H](C(=O)O)C(C)C)C(C)C)C(C)C` [L3-LF] (H-QK[NMeL]V[NMeF]FAEDLLLNKGAIIGL[Nle]VGGVV-OH), at IAPP (RIN5fm cells), the “Effect on formation … (MTT reduction)” value is on record as “fully suppressed; also recorded: suppress formation of toxic IAPP assemblies”. Moreover, the pIC50 on IAPP is 6.88.
For the compound `CCCC[C@H](NC(=O)[C@H](CC(C)C)NC(=O)CNC(=O)[C@@H](NC(=O)[C@@H](NC(=O)[C@H](C)NC(=O)CNC(=O)[C@H](CCCCN)NC(=O)[C@H](CC(N)=O)NC(=O)[C@H](CC(C)C)NC(=O)[C@H](CC(C)C)NC(=O)[C@H](CC(C)C)NC(=O)[C@H](CC(=O)O)NC(=O)[C@H](CCC(=O)O)NC(=O)[C@H](C)NC(=O)[C@H](Cc1ccccc1)N(C)C(=O)[C@H](Cc1ccccc1)NC(=O)[C@H](C(C)C)N(C)C(=O)[C@H](CC(C)C)NC(=O)[C@H](CCCCN)NC(=O)[C@@H](N)CCC(N)=O)[C@@H](C)CC)[C@@H](C)CC)C(=O)N[C@H](C(=O)NCC(=O)NCC(=O)N[C@H](C(=O)N[C@H](C(=O)O)C(C)C)C(C)C)C(C)C` [L3-VF] (H-QKL[NMeV]F[NMeF]AEDLLLNKGAIIGL[Nle]VGGVV-OH), the “Effect on formation … (MTT reduction)” value on IAPP (RIN5fm cells) was “fully suppressed; also recorded: suppress formation of toxic IAPP assemblies”. Besides, the pIC50 is 6.95 on IAPP and 6.58 on Aβ42 [1]. Further, the “Effect on LTP impairment mediated by preformed Aβ42 oligomers” value in series [2] is recorded as “suppress LTP impairment mediated by preformed Aβ42 oligomers”. Moreover, the “Effect of addition to TAMRA-oAβ42 on Aβ42 phagocytosis” value in series [3] is listed as “increased Aβ42 phagocytosis”.
As to `CCCC[C@H](NC(=O)[C@H](CC(=O)O)NC(=O)[C@H](CCC(=O)O)NC(=O)[C@H](C)NC(=O)[C@H](Cc1ccccc1)NC(=O)[C@H](Cc1ccccc1)N(C)C(=O)[C@@H](NC(=O)[C@H](CC(C)C)N(C)C(=O)[C@H](CCCCN)NC(=O)[C@@H](N)CCC(N)=O)C(C)C)C(=O)N[C@@H](CCCC)C(=O)N[C@@H](CCCC)C(=O)N[C@@H](CC(N)=O)C(=O)N[C@@H](CCCCN)C(=O)NCC(=O)N[C@@H](C)C(=O)N[C@H](C(=O)N[C@H](C(=O)NCC(=O)N[C@@H](CC(C)C)C(=O)N[C@@H](CCCC)C(=O)N[C@H](C(=O)NCC(=O)NCC(=O)N[C@H](C(=O)N[C@H](C(=O)O)C(C)C)C(C)C)C(C)C)[C@@H](C)CC)[C@@H](C)CC` [Nle3-LF] (H-QK[NMeL]V[NMeF]FAED[Nle][Nle][Nle]NKGAIIGL[Nle]VGGVV-OH), the “Effect on formation … (MTT reduction)” value on IAPP (RIN5fm cells) is given as “fully suppressed; also recorded: suppress formation of toxic IAPP assemblies”. In addition, at IAPP, the pIC50 is 7.09.
For “Nle3-LVFF: 4-fold N-methylated Nle3-VF analog; N-methylation of all four residues of segment LVFF (QK[NMeL][NMeV][NMeF][NMeF]AED[Nle][Nle][Nle]NKGAIIGL[Nle]VGGVV)”, the “Effect on Aβ42 fibrillogenesis / amyloid self-assembly (ThT binding)” value with Aβ42 [4] is listed as “blocks amyloid self-assembly of Aβ42”.

Source of the values: patent US20250161408A1, “PEPTIDIC INHIBITORS OF AMYLOID SELF- AND CROSS-ASSEMBLY” (TECHNISCHE UNIVERSITÄT MÜNCHEN, priority 2022, published 2025).
